Experimental data published in ChEMBL document CHEMBL1201862, “PubChem BioAssay data set” (2004).
The source made the active and inactive calls.

How the values were obtained:
Cytochrome P450 3A4 = Cytochrome P450 3A4 (Homo sapiens, UniProt P08684);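 further: CYP3A4 tested as one member of a cytochrome P450 panel screen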
Cytochrome P450 1A2 = biological target: T1, Cytochrome P450 1A2 (Homo sapiens, UniProt P05177);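 further: PubChem cytochrome P450 panel assay, CYP1A2 panel member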
T1 sequence (P05177 whole entry): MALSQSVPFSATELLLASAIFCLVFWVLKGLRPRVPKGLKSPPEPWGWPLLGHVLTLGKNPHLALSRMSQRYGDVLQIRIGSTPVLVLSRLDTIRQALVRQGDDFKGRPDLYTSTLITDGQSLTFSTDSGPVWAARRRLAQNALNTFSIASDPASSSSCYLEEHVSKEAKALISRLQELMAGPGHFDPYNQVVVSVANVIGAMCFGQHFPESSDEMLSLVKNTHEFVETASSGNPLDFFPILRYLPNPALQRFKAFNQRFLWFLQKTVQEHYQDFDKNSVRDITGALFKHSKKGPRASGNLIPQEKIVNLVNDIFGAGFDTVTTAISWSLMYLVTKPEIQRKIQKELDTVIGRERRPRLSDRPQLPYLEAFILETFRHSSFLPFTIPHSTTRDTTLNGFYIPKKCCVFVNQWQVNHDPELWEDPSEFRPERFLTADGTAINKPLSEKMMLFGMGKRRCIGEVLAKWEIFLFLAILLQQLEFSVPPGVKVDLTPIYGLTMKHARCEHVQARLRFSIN

Cytochrome P450 2C9 = Cytochrome P450 2C9 (Homo sapiens, UniProt P11712)
Bcl-2-related protein A1 = biological target: T2, Bcl-2-related protein A1 (Mus musculus, UniProt Q07440); format: functional;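 further: confirmatory dose–response counterscreen on Bfl-1, used to check hits from a UBC13 polyubiquitin inhibitor campaign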
T2 sequence (Q07440 whole entry): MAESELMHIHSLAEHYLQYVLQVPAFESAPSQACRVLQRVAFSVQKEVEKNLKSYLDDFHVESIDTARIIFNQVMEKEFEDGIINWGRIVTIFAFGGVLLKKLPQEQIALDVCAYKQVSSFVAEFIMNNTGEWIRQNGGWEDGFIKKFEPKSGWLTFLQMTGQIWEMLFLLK

[1] = biological target: T3, Ubiquitin-conjugating enzyme E2 N (Homo sapiens, UniProt P61088); format: functional
T3 sequence (P61088 whole entry): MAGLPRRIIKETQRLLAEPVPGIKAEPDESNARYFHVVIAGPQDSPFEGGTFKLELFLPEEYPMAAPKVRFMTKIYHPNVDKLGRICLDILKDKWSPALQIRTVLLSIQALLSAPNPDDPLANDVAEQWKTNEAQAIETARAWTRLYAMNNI

[2] = biological target: T3, Ubiquitin-conjugating enzyme E2 N; format: functional; remark: listed apart in the source
[3] = biological target: T4, Endoribonuclease toxin MazF (Escherichia coli K-12, UniProt P0AE70); test: activation of MazEF endoribonuclease cleavage – biochemical, fluorescence, single-stranded RNA substrate, uHTS hits, dose response (AID 588481); format: functional
T4 sequence (P0AE70 whole entry): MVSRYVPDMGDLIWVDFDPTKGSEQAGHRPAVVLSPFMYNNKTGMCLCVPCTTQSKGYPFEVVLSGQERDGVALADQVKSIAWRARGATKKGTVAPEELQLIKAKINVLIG

[4] = biological target: T4, Endoribonuclease toxin MazF; test: substrate-only fluorescence increase artefacts – biochemical, single-stranded RNase substrate, counter-screen for MazEF activator project, dose response (AID 588502); format: functional
[5] = biological target: T5, High affinity choline transporter 1 (Homo sapiens, UniProt Q9GZV3); test: human choline transporter blockers, potency – cell-based, 5-point CRC, membrane potential dye, dose response (AID 504840); format: functional
T5 sequence (Q9GZV3 whole entry): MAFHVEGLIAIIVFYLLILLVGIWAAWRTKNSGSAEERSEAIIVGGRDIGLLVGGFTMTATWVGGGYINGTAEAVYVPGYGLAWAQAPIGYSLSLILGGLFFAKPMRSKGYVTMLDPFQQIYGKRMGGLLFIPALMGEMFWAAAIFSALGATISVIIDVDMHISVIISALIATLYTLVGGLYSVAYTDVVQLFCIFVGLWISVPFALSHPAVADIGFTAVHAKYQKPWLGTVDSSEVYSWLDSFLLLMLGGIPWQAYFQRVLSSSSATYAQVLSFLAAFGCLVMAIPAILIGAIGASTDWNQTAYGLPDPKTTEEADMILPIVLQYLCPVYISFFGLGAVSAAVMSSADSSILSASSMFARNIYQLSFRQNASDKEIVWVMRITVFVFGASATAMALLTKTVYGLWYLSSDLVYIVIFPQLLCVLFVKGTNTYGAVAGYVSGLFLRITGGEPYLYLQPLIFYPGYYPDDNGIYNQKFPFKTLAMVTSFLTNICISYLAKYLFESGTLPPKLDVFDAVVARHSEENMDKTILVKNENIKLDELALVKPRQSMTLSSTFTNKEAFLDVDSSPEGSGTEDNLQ

Cytochrome P450 2C19 = Cytochrome P450 2C19 (Homo sapiens, UniProt P33261); test: Cytochrome panel assay with activity outcomes. Panel member name: p450-cyp2c19 Compounds with AC50 equal or less than 10 uM are considered active; format: functional; conditions: read-out: AC50
[6] = NIH-3T3 fibroblast cytotoxicity, dose response, cytotoxicity control, cell-based, fluorescence, Alamar Blue, secondary assay (AID 2327); format: functional;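 further: NIH-3T3 mouse fibroblasts cultured with fluconazole at 8 µg/mL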
[7] = Trypanosoma cruzi growth suppression in host cells – NIH3T3 host cells, beta-gal luminescence, confirmation (AID 2044); format: functional, cell-based;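 further: intracellular parasites grown in NIH/3T3 mouse fibroblasts as host cells; luminescent beta-galactosidase reporter signal from transgenic T. cruzi replicating inside host cells; inhibitors lower the luminescence signal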
[8] = biological target: T6, Microphthalmia-associated transcription factor (Homo sapiens, UniProt O75030); test: reducers of TRPM1 reporter luminescence, concentration series – cell-based, SK-MEL-5, cherry-picked, set 3, MITF inhibitor project, dose response (AID 493073); format: functional;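 further: SK-MEL-5 melanoma cells with luciferase driven by the MITF target TRPM1 promoter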
T6 sequence (O75030 whole entry): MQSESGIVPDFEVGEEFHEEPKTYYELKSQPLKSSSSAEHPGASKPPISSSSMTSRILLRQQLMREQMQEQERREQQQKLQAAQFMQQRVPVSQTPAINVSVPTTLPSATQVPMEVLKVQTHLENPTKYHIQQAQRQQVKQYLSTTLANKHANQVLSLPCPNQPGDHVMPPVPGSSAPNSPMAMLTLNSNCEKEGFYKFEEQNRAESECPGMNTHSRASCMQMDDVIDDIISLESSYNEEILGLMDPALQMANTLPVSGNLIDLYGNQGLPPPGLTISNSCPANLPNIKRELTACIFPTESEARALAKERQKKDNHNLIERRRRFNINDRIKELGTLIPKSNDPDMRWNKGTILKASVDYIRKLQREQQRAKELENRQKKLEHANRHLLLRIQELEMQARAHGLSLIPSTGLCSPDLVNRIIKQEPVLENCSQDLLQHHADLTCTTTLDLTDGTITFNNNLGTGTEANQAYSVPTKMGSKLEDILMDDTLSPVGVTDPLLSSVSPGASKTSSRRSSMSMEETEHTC

INS1 = test: INS-1E survival protection against cytokine death – cell-based, luminescence, retest, dose response (AID 449756); format: functional; conditions: Rattus norvegicus;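 further: cell death triggered by IL-1 beta plus TNF-alpha plus IFN-gamma mixture; protective hits raise ATP signal compared with cytokine alone wells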
[9] = NIH3T3 cell viability loss – ATP luminescence, mouse fibroblasts, counter-screen, dose response (AID 2010); format: functional, cell-based;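 further: cells exposed to compound for about 90 hours before reading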
[10] = fluconazole-exposed Candida albicans growth modulators – fluorescence, retest, confirmation (AID 2467); format: functional, cell-based

Cytochrome P450 3A4, sequence (P08684 whole entry): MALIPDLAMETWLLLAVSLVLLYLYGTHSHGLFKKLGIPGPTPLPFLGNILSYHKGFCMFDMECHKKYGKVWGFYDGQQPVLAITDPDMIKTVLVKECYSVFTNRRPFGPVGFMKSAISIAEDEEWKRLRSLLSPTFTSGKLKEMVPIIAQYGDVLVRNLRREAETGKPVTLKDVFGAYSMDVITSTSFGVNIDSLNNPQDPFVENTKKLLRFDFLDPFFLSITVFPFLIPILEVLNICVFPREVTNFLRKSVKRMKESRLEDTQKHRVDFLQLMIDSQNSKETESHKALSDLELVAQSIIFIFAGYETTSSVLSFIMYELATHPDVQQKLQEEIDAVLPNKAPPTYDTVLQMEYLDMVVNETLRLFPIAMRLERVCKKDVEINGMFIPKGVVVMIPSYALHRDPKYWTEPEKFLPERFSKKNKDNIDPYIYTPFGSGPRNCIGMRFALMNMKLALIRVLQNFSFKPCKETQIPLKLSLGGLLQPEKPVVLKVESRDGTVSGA
Cytochrome P450 2C9, sequence (P11712 whole entry): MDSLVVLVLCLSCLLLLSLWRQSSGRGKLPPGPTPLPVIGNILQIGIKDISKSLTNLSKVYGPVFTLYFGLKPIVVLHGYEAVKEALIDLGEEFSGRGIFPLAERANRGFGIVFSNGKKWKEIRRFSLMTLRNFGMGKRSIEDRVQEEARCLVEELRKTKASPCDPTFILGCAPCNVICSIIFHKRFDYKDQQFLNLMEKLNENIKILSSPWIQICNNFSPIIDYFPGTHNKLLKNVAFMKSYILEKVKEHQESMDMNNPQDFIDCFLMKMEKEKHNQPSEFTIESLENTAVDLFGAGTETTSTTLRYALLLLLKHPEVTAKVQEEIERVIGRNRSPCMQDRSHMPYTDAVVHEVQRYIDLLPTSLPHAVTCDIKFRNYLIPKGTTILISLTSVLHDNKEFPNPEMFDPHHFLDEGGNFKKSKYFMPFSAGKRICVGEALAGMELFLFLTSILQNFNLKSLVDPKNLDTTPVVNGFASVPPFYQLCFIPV
Cytochrome P450 2C19, sequence (P33261 whole entry): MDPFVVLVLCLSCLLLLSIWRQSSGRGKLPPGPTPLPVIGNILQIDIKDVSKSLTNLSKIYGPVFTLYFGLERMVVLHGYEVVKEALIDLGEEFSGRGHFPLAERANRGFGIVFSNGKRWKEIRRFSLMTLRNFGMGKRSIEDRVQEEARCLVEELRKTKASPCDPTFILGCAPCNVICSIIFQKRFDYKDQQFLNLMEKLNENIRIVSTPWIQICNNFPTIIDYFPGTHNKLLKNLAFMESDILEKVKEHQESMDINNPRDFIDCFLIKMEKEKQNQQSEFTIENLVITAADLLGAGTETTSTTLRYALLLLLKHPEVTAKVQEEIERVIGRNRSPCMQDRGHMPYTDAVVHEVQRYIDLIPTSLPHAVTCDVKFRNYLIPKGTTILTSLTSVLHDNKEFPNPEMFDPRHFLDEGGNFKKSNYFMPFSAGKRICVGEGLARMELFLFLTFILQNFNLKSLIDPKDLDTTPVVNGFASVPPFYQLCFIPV

## CCCCOC(=O)c1ccc(NC(=S)NC(=O)c2c(Cl)cnn2C)cc1
Cytochrome P450 3A4
  AC50: inconclusive
Cytochrome P450 1A2
  AC50: 39.8 µM (inconclusive)
Cytochrome P450 2C9
  AC50: 39.8 µM (inconclusive)

## Cc1ccccc1CNC(=O)CCCC(=O)n1nc(C)c2ccccc21
Bcl-2-related protein A1
  IC50: > 20 µM (inactive)
[1]
  IC50: 13.5 µM (active)
[2]
  IC50: 20 µM (active)

## Cc1cc(C(=O)N/N=C/c2ccc(-c3ccc([N+](=O)[O-])cc3C)o2)[nH]n1
[3]
  EC50: > 99 µM (inactive)
[4]
  EC50: > 99 µM (inactive)

## CCOc1ccccc1C(=O)NC(C)c1ccc2c(c1)OCO2 (stereo not drawn)
[5]
  IC50: 19.1 µM (active)

## CC(C)CC(C(=O)NC(C)(C)C)N(CC1CCCO1)C(=O)c1snc(C(N)=O)c1N (stereo not drawn)
Bcl-2-related protein A1
  IC50: > 20 µM (inactive)
[1]
  IC50: 13.4 µM (active)
[2]
  IC50: 11.2 µM (active)

## O=C(Oc1ccccc1)N1CCC2(CC1)CN(C(c1ccccc1)c1ccccc1)C2
Cytochrome P450 2C19
  AC50: 31.6 µM (inconclusive)
Cytochrome P450 3A4
  AC50: inconclusive
Cytochrome P450 2C9
  AC50: 39.8 µM (inconclusive)

## CCc1nnc(NS(=O)(=O)c2ccc(NC(=O)c3cc(Cl)ccc3Cl)cc2)s1
[5]
  IC50: 12.3 µM (active)

## COc1ccc(-c2cc(-c3ccccc3)[n+](C)c(-c3ccccc3)c2)cc1.[O-][Cl+3]([O-])([O-])[O-]
[6]
  EC50: > 160 µM (inactive)
[7]
  EC50: 0.131 µM (active)
[8]
  AC50: 3.2 µM (active)
INS1
  AC50: 2.85 µM (active)
[9]
  EC50: > 60 µM (not active)
[10]
  EC50: 0.57 µM (active)

## CNc1cc(-c2ccccc2C(F)(F)F)ncn1
Cytochrome P450 3A4
  AC50: inconclusive
